Data as given in publication PMC11820896, “New Compounds with Enhanced Biological Activity Through the Strategic Introduction of Silylated Groups into Hydroxystearic Acids” (Molecules, 2025).

Legend:
[1] = system: human tumor cell lines (HT29, MCF-7, HeLa, U2OS, and J6); assay: Antiproliferative activity in the series of human tumor cell lines; type: cell-based; details: MTT; concentration range of 10–500 nM
Procedure: The human colorectal adenocarcinoma (Caco-2), human colorectal adenocarcinoma (HT29), normal human intestinal (I407), human cervical cancer (HeLa), human breast cancer (MCF7), human bone osteosarcoma (U2OS), and human acute T-cell leukemia (Jurkat J6) cell lines were purchased from American Type Culture Collection (ATCC, Manassas, VA, USA). Cells were cultured in RPMI 1640 medium (Labtek Eurobio, Milan, Italy), supplemented with 10% FCS (Euroclone, Milano, Italy) and 2 mM L-glutamine (Sigma-Aldrich, Milano, Italy), at 37 °C and in a 5% CO2 atmosphere. The compounds were dissolved in DMSO in a 30–40 mM stock solution. In cell treatments, the final DMSO concentration never exceeded 0.1%.
Cells were seeded in a 96-well culture plastic plate (Sarsted, Milan, Italy), at 5 × 10^4 cells/well and, after 24 h, were exposed to increasing concentrations of the different compounds (from 1 nM to 500 nM) dissolved in RPMI 1640 medium. An MTT assay was performed according to Micheletti et al..
The absorbance at 570 nm was measured using a multi-well plate reader (Tecan, Männedorf, Switzerland), and data were analyzed by Prism GraphPad 8 software and expressed as IC50 nM.

[2] = system: histones H2/H3 and H4 of HT29 cells; assay: Histone acetylation status, Western blot; type: cell-based, human; details: 50 nM, 6 h
Procedure: HT29 were seeded at a density of 1.5 × 10^4 cell/cm^2 in a Petri dish and, after 24 h, treated for 6 h with 50 nM of compound 4. Cells were harvested, and histones were extracted by previously isolated nuclei according to […] al.. The proteins were resolved on a 10% gel in MES buffer at 200 V for 35 min and immunoblotted with mouse anti-acetylated lysines (Millipore, Billerica, MA, USA) or rabbit anti-γH2Ax (Santa Cruz Biotechnology, Dallas, TX, USA) primary antibodies. The membranes were developed with Clarity Western ECL Substrate (Bio-Rad, Hercules, CA, USA) after incubation with mouse or rabbit secondary horseradish peroxidase-conjugated antibody (GE Healthcare, Chicago, IL, USA). SDS-PAGE was stained with Coomassie Brilliant Blue R-250 (Bio-Rad, Hercules, CA, USA), while densitometric analyses were performed using a Fluor-S Max MultiImager (Bio-Rad, Hercules, CA, USA), and relative quantification of histone acetylation and histone H2Ax phosphorylation signals were normalized to the H1 signal as a control.

In the case of `CCCCCCCCC[C@H](CCCCCCCC(=O)O)O[Si](C)(C)C(C)(C)C` [Compound 4, (R)-9-((tert-butyldimethylsilyl)oxy)octadecanoic acid], the “antitumor activity across all cell lines tested” value [1] is reported as “showed antitumor activity” and the “acetylation state of histones H2/H3 and H4” value [2] is reported as “extended increase”.
